Assay results: PMC7692735, “Bromo-Cyclobutenaminones as New Covalent UDP-N-Acetylglucosamine Enolpyruvyl Transferase (MurA) Inhibitors” (Pharmaceuticals, 2020)
Converted amounts (≈) assume the structure as drawn. “Also recorded” adds a separate entry of the source. Where two headings read alike, the source gives them in different places.

Experiments:
MurA (E. coli) [1] = molecular target: T1, MurA (E. coli) (Escherichia coli, UniProt P0A749); settings: known MurA inhibitors, Figure 1; cited from earlier work
T1 construct: made in house; host or cells: E. coli
T1 sequence (P0A749 whole entry): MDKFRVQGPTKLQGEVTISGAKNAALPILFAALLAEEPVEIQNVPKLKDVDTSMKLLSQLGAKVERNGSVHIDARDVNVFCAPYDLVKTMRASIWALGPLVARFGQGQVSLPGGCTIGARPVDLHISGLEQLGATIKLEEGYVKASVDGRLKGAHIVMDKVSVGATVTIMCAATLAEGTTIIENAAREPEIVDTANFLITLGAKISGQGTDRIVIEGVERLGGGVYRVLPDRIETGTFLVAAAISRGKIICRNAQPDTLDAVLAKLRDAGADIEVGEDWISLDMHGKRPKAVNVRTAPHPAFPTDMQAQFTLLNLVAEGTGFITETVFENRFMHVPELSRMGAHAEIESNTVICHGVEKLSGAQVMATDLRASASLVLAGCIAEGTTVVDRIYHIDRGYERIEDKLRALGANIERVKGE

MurA (E. coli) [2] = molecular target: T1, MurA (E. coli); assay: MurA assay, colorimetric malachite green method; format: biochemical; settings: for MurA inhibition in screening: 500 μM screening concentration
Experimental: MurAEC protein was recombinant, expressed in E. coli. The inhibition of MurA was monitored with the colorimetric malachite green method in which orthophosphate generated during the reaction is measured. MurA enzyme (E. coli) was pre-incubated with the substrate UNAG and compound for 30 min at 37 °C. The reaction was started by the addition of the second substrate PEP, resulting in a mixture with a final volume of 50 μL. The mixtures contained: 50 mM Hepes, pH 7.8, 0.005% Triton X-114, 200 μM UNAG, 100 μM PEP, purified MurA (diluted in 50 mM Hepes, pH 7.8) and 500 μM of each tested compound dissolved in DMSO. All compounds were soluble in the assay mixtures containing 5% DMSO (v/v). After incubation for 15 min at 37 °C, the enzyme reaction was terminated by adding Biomol® reagent (100μL) and the absorbance was measured at 650 nm after 5 min. All of the experiments were run in duplicate. Remaining activities (RAs) were calculated with respect to similar assays without the tested compounds and with 5% DMSO. The IC50 values, the concentration of the compound at which the remaining activity was 50%, were determined by measuring the remaining activities at seven different compound concentrations. The data are expressed as means of duplicate determinations, and the standard deviations were within 10% of the given values. A time-dependent inhibition assay was also performed. The IC50 values were determined at 0, 15 and 30 min of pre-incubation.

[3] = GSH reactivity assay (HPLC-MS); format: physicochemical; settings: 250 μM fragment, 5 mM glutathione, PBS pH 7.4, 5% MeCN
Experimental: (§1) The assay was adapted from our former publication.
(§2) For the glutathione assay, 500 μM solution of the fragment (PBS buffer pH 7.4, 10% MeCN, 250 μL) with 200 μM solution of indoprofen (Merck KGaA, Darmstadt, Germany) as internal standard was added to 10 mM glutathione (Merck KGaA, Darmstadt, Germany) solution (dissolved in PBS buffer, 250 μL) in a 1:1 ratio. The final concentration was 250 μM fragment, 100 μM indoprofen, 5 mM glutathione and 5% MeCN (500 μL). The final mixture was analyzed by HPLC-MS (Shimadzu LCMS-2020) after 0, 1, 2, 4, 20, 25, 48, 72 h time intervals. […] The AUC (area under the curve) values were determined via integration of HPLC spectra then corrected using the internal standard. […] The data are expressed as means of duplicate determinations, and the standard deviations were within 10% of the given values. […]
(§3) The reaction half-life for pseudo-first-order reactions is t1/2 = ln2/k, where k is the reaction rate. […] In our case, the corrected kdeg and keff (regarding blank and GSH-containing samples, respectively) can be calculated by linear regression of the data points of the kinetic measurements. The corrected kGSH is calculated by keff − kdeg, and finally, the half-life time is determined using the equation t1/2(GSH) = ln2/kGSH.

[4] = Aqueous stability assay in PBS buffer; format: physicochemical; settings: PBS buffer pH 7.4, room temperature; read-out: t1/2 aqueous degradation (converted)
Experimental: as §1, §2, §3

MurA Cys115 = assay: MS/MS of tryptic digested MurA, covalent labelling; format: binding, E. coli; settings: tryptic peptide amino acids 104–120
Experimental: The tryptic digestion method was adapted from our former publication.
Briefly, 50 μL of MurA (42 μM) and 10 μL 0.2% (w/v) RapiGest SF (Waters Corp., Milford, MA, USA) solution buffered with 50 mM ammonium bicarbonate (NH4HCO3) were mixed (pH = 7.8). 4.5 μL of 45 mM DTT (~200 nmol) in 100 mM NH4HCO3 was added and the mixture kept at 37.5 °C for 30 min. After cooling the sample to room temperature, 7.5 μL of 100 mM iodoacetamide (750 nmol) in 100 mM NH4HCO3 was added and the mixture placed in the dark at room temperature for 30 min. The reduced and alkylated protein was then digested by 10 μL (1 mg mL^−1) trypsin (the enzyme-to-protein ratio was 1:10) (Sigma, St Louis, MO, USA). The sample was incubated at 37 °C overnight. To degrade the surfactant, 7 μL of HCOOH (500 mM) solution was added to the digested […] sample to obtain the final 40 mM (pH ≈ 2) solution which was incubated at 37 °C for 45 min. For LC-MS analysis, the acid-treated sample was centrifuged for 5 min at 13,000 rpm.
A QTRAP 6500 triple quadruple—linear ion trap mass spectrometer, equipped with a Turbo V source in electrospray mode (AB Sciex Pte. Ltd., Framingham, MA, USA) and an Agilent 1100 Binary Pump HPLC system (Agilent Technologies, Waldbronn, Germany) equipped with an autosampler was used for LC-MS/MS analysis. […]

E. coli (ATCC 25922) = assay: Antimicrobial testing (MIC), broth microdilution; format: cell-based; settings: Escherichia coli, ATCC25922, positive control
Experimental: (§4) Antimicrobial testing was carried out by the broth microdilution method in 96-well plate format following the CLSI guidelines and European Committee for Antimicrobial Susceptibility Testing recommendations. Bacterial suspension of specific bacterial strain, equivalent to 0.5 McFarland turbidity standard, was diluted with cation-adjusted Mueller Hinton broth to obtain a final inoculum of 10^5 CFU/mL. Compounds dissolved in DMSO and inoculum were mixed together and incubated for 20–24 h at 37 °C. After incubation the minimal inhibitory concentration (MIC) values were determined by visual inspection as the lowest dilution of compounds showing no turbidity. The MICs were determined against S. aureus (ATCC 29213) and E. coli (ATCC 25922) bacterial strains. Tetracycline was used as a positive control on every assay plate, showing a MIC of 0.5 µg/mL and 1 µg/mL for S. aureus and E. coli, respectively.

S. aureus (ATCC 29213) = assay: Antimicrobial testing (MIC), broth microdilution; format: cell-based; settings: Staphylococcus aureus, ATCC29213, positive control
Experimental: as §4

MurA (E. cloacae) = test system: MurA (E. cloacae); set-up: method as in PMID 24755374, PMID 25521652, PMID 11600375, PMID 30461051; settings: known MurA inhibitors, Figure 1; cited from earlier work
[5] = fragment 500 μM, 30 min preincubation at 37 °C, read-out: RA (remaining activity) at 500 µM
[6] = fragment 500 μM, 30 min preincubation at 37 °C
[7] = 30 min preincubation, read-out: IC50 (converted)

For `C=Cc1cncs1` [compound 9], the IC50 (MurA (E. coli) [1]) is given as 66 µM.
With `CCOC1=CC(=O)C1(C)C` [compound 12, 3-Ethoxy-4,4-dimethylcyclobut-2-en-1-one] the “MurA inhibition in screening” value (MurA (E. coli) [2]) was “to no avail” and the remaining activity at 500 µM (MurA (E. coli) [2]; [5]) was 98 ± 2%.
Work on `CN(C(=O)c1ccccc1)C1=CC(=O)C1(C)C` [16a, N-(4,4-dimethyl-3-oxocyclobut-1-en-1-yl)-N-methylbenzamide] yielded a remaining activity at 500 µM (MurA (E. coli) [2]; [5]) of 99 ± 8%.
In the case of `C=C(C(=O)O)[C@@H]1[C@@H](CCCCCCCC)OC(=O)[C@@H]1O` [compound 8], the IC50 (MurA (E. coli) [1]) is given as 2.8 µM.
With `CN(C(=O)c1ccccc1)C1=C(Br)C(=O)C1(C)C` [17a, N-(2-bromo-4,4-dimethyl-3-oxocyclobut-1-en-1-yl)-N-methylbenzamide] the IC50 (MurA (E. coli) [2]; IC50, 30 min preincubation) was 138 µM, the remaining activity at 500 µM (MurA (E. coli) [2]; [5]) was 12 ± 3% and the “kGSH rate constant of conjugation with GSH” value [3] was 0.0128 M/min. For the same molecule, the half-life at 250 μM [4] was 36.5 h and the “Covalent labelling site on MurA by MS/MS” value (MurA Cys115) was “labelled on Cys115; also recorded: labeling on Cys115”.
With `CN(CC(F)(F)F)C1=C(Br)C(=O)C1(C)C` [15e, 2-Bromo-4,4-dimethyl-3-(methyl(2,2,2-trifluoroethyl)amino)cyclobut-2-en-1-one] the “MurA inhibition in screening” value (MurA (E. coli) [2]) was “no effect” and the remaining activity at 500 µM (MurA (E. coli) [2]; [5]) was 84 ± 4%.
In the case of `CN(C)[C@@H]1C(O)=C(C(N)=O)C(=O)[C@@]2(O)C(O)=C3C(=O)c4c(O)cccc4[C@@](C)(O)[C@H]3C[C@@H]12` [Tetracycline], the MIC (E. coli (ATCC 25922)) is reported as 1 µg/mL (≈ 2.25 µM) and the MIC (S. aureus (ATCC 29213)) is reported as 0.5 µg/mL (≈ 1.13 µM).
In the case of `Ic1cncnc1` [compound 10], the IC50 (MurA (E. coli) [1]) is listed as 3.8 µM.
For `CC1=C(O)C(=O)[C@@H]2O[C@@H]2C1=O` [terreic acid], the IC50 (MurA (E. cloacae)) is given as 14 µM.
Molecule `COc1ccc(CN(C)C2=CC(=O)C2(C)C)cc1` [14d, 3-((4-Methoxybenzyl)(methyl)amino)-4,4-dimethylcyclobut-2-en-1-one] has a remaining activity at 500 µM (MurA (E. coli) [2]; [5]) of 99 ± 3%.
In the case of “2-Bromo-4,4-dimethyl-3-(methylamino)cyclobut-2-en-1-one [15b]”, the “RA (remaining activity) at 500 µM” value (MurA (E. coli) [2]; [6]) is reported as 91 ± 5%.
With `CNC1=C(Br)C(=O)C1(C)C` [15a, 2-Bromo-4,4-dimethyl-3-(methylamino)cyclobut-2-en-1-one] the remaining activity at 500 µM (MurA (E. coli) [2]; [5]) was 100 ± 7%.
`CCN(CC)C1=CC(=O)C1(C)C` [14c, 3-(Diethylamino)-4,4-dimethylcyclobut-2-en-1-one] showed a remaining activity at 500 µM (MurA (E. coli) [2]; [5]) of 96 ± 2%.
In the case of `CN(C)C1=CC(=O)C1(C)C` [14b, 3-(Dimethylamino)-4,4-dimethylcyclobut-2-en-1-one], the remaining activity at 500 µM (MurA (E. coli) [2]; [5]) is reported as 99 ± 1%.
In the case of `CN(CC(F)(F)F)C1=CC(=O)C1(C)C` [14e, 4,4-Dimethyl-3-(methyl(2,2,2-trifluoroethyl)amino)cyclobut-2-en-1-one], the remaining activity at 500 µM (MurA (E. coli) [2]; [5]) is reported as 98 ± 7%.
In the case of `C=C1C(=O)OCC1O` (racemic) [(±)-tulipaline B], the IC50 (MurA (E. coli) [1]) is given as 2.2 µM.
In the case of `O=C1O/C(=C\c2cccc3ccccc23)C(O)=C1c1ccc(C(F)(F)F)cc1` [compound 5], the IC50 (MurA (E. coli) [1]) is listed as 39 µM.
With `COc1ccc(CN(C)C2=C(Br)C(=O)C2(C)C)cc1` [15d, 2-Bromo-3-((4-methoxybenzyl)(methyl)amino)-4,4-dimethylcyclobut-2-en-1-one] the IC50 (MurA (E. coli) [2]; [7]) was 363 µM, the “RA (remaining activity) at 500 µM” value (MurA (E. coli) [2]; [6]) was 13 ± 1% and the remaining activity at 500 µM (MurA (E. coli) [2]; read-out: RA (remaining activity) at 500 µM, fragment 500 μM, 30 min preincubation at 37 °C) was < 15%.
Molecule `CNC1=CC(=O)C1(C)C` [14a, 3-(Methylamino)-4,4-dimethylcyclobut-2-en-1-one] has a remaining activity at 500 µM (MurA (E. coli) [2]; [5]) of 93 ± 4%.
`CCN(CC)C1=C(Br)C(=O)C1(C)C` [15c, 2-Bromo-3-(diethylamino)-4,4-dimethylcyclobut-2-en-1-one] showed a remaining activity at 500 µM (MurA (E. coli) [2]; [5]) of 88 ± 6%.
`CC(=O)N(C)C1=C(Br)C(=O)C1(C)C` [17b, N-(2-bromo-4,4-dimethyl-3-oxocyclobut-1-en-1-yl)-N-methylacetamide] showed an IC50 (MurA (E. coli) [2]; 0 min preincubation, read-out: IC50 (converted)) of 356 ± 29 µM, an IC50 (MurA (E. coli) [2]; 15 min preincubation, read-out: IC50 (converted)) of 149 ± 15 µM and an IC50 (MurA (E. coli) [2]; [7]) of 128 µM. For the same molecule, the remaining activity at 500 µM (MurA (E. coli) [2]; [5]) was 8 ± 2% and the “Covalent labelling site on MurA by MS/MS” value (MurA Cys115) was “labeling on Cys115”.
